Measured values as given in ChEMBL document CHEMBL1201862, “PubChem BioAssay data set” (2004).
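Exposure lasted 48 hours, with cells grown in 96-well plates and compounds tested at five concentrations. GI50: concentration for 50% inhibition of growth.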 Calls of active or inactive are those of the source. Cut-off read from the data, not from the text of the source: active = GI50 up to about 1.1 µM and inactive = higher.

Tests used:
Experiment in all cases: NCI-60 cell line screen, 48 h
A498 = system: A498
BT-549 = system: BT-549
COLO 205 = system: COLO 205
HCT-15 = system: HCT-15
HT-29 = system: HT-29
KM12 = system: KM12
Malme-3M = system: Malme-3M
PC-3 = system: PC-3
RPMI-8226 = system: RPMI-8226
SF-295 = system: SF-295
SK-MEL-28 = system: SK-MEL-28
SK-MEL-5 = system: SK-MEL-5
SNB-19 = system: SNB-19
SNB-75 = system: SNB-75
SNB-78 = system: SNB-78
SW-620 = system: SW-620
T47D = system: T47D
U-251 = system: U-251
UACC-257 = system: UACC-257
UO-31 = system: UO-31

Row | SMILES | GI50 (A498) | GI50 (BT-549) | GI50 (COLO 205) | GI50 (HCT-15) [nM] | GI50 (HT-29) | GI50 (KM12) | GI50 (Malme-3M) | GI50 (PC-3) | GI50 (RPMI-8226) | GI50 (SF-295) | GI50 (SK-MEL-28) | GI50 (SK-MEL-5) | GI50 (SNB-19) | GI50 (SNB-75) | GI50 (SNB-78) | GI50 (SW-620) | GI50 (T47D) | GI50 (U-251) | GI50 (UACC-257) | GI50 (UO-31)
1 | COc1cc2c(c(OC)c1OC)-c1ccc(SC)c(=O)cc1C(NC=O)CC2 (configuration not stated) | < 0.01 µM (active) | 0.239 µM (active) | < 0.01 µM (active) | < 10 | < 0.01 µM (active) | < 0.01 µM (active) | < 0.01 µM (active) | < 0.01 µM (active) | < 0.01 µM (active) | < 0.01 µM (active) | 0.462 µM (active) | < 0.01 µM (active) | 0.0344 µM (active) | < 0.0442 µM (active) | < 0.01 µM (active) | < 0.0275 µM (active) | 54.1 µM (inactive) | < 0.01 µM (active) | 0.249 µM (active) | 0.0188 µM (active)
2 | Cc1nnc(N/N=C(/C(=O)C(C#N)c2ccccc2)C(C#N)c2ccccc2)n1N (configuration not stated) | 7.98 µM (inactive) | – | 4.76 µM (inactive) | 16100 | 6.4 µM (inactive) | 28.4 µM (inactive) | 4.18 µM (inactive) | – | 19.6 µM (inactive) | 3.75 µM (inactive) | 20 µM (inactive) | 18.3 µM (inactive) | 56 µM (inactive) | 16.4 µM (inactive) | > 51.1 µM (inactive) | 1.56 µM (inactive) | – | 32.6 µM (inactive) | 5.26 µM (inactive) | 26.4 µM (inactive)
3 | CN1C(=O)C(=O)N2c3ccc(Cl)cc3C3(c4ccccc4)N=CC12O3 (configuration not stated) | 10.8 µM (inactive) | – | 4.02 µM (inactive) | 3240 | 4.55 µM (inactive) | 3.55 µM (inactive) | 20 µM (inactive) | – | 2.19 µM (inactive) | 11.1 µM (inactive) | 3.44 µM (inactive) | 5.52 µM (inactive) | 12.9 µM (inactive) | 3.6 µM (inactive) | 6.7 µM (inactive) | 3.79 µM (inactive) | – | 9.48 µM (inactive) | 5.79 µM (inactive) | 4.1 µM (inactive)
4 | O=[N+]([O-])c1cc([N+](=O)[O-])c(C(Cl)C(Cl)c2ccccc2)cc1C(Cl)C(Cl)c1ccccc1 (configuration not stated) | 1.82 µM (inactive) | – | 1.73 µM (inactive) | 1480 | 2.17 µM (inactive) | 1.85 µM (inactive) | 1.76 µM (inactive) | – | 1.07 µM (active) | 2.15 µM (inactive) | 1.9 µM (inactive) | 1.66 µM (inactive) | 2.32 µM (inactive) | 2.47 µM (inactive) | 2.99 µM (inactive) | 1.61 µM (inactive) | – | 1.82 µM (inactive) | 1.84 µM (inactive) | 1.51 µM (inactive)
5 | Cc1csc2c1C(=O)c1ccsc1C2=O | 18.2 µM (inactive) | – | 12.2 µM (inactive) | 1490 | 2.65 µM (inactive) | 2.96 µM (inactive) | 0.343 µM (active) | 2.58 µM (inactive) | 3.61 µM (inactive) | 1.59 µM (inactive) | 1.53 µM (inactive) | 0.589 µM (active) | 3.37 µM (inactive) | 1.97 µM (inactive) | 4.27 µM (inactive) | 2.47 µM (inactive) | 2.2 µM (inactive) | 3.4 µM (inactive) | 1.52 µM (inactive) | 2.87 µM (inactive)
6 | COc1ccc2nc3c(c(NCCCN(C)C)c2c1)CCCC3 | 20.3 µM (inactive) | – | 10.8 µM (inactive) | 16300 | 5.41 µM (inactive) | 12.5 µM (inactive) | 19.7 µM (inactive) | – | 6.25 µM (inactive) | 14.6 µM (inactive) | 16.9 µM (inactive) | 15.8 µM (inactive) | 21.6 µM (inactive) | 13.2 µM (inactive) | 7.83 µM (inactive) | 10.7 µM (inactive) | – | 15.5 µM (inactive) | 17 µM (inactive) | 16 µM (inactive)
7 | CO[C@@]12[C@H](COC(N)=O)C3=C(C(=O)C(C)=C(N)C3=O)N1C[C@H]1[C@@H]2N1C (some centres not stated) [PORFIROMYCIN] | 6.31 µM (inactive) | 12.2 µM (inactive) | 2.22 µM (inactive) | 2570 | 1.42 µM (inactive) | 6.97 µM (inactive) | 4.1 µM (inactive) | 12.6 µM (inactive) | 8.41 µM (inactive) | 0.398 µM (active) | 12.3 µM (inactive) | 1.8 µM (inactive) | 2.35 µM (inactive) | 1.1 µM (active) | 9.68 µM (inactive) | 1.87 µM (inactive) | 9.2 µM (inactive) | 1.19 µM (inactive) | 8.28 µM (inactive) | 13.9 µM (inactive)
